What all share (type): physicochemical
Data set [1] in a line: Evaluation of Xenon light exposure (HPLC, XRPD, color). Particulars: Xenon light (approx. 1200 kLuxh, 25° C.). As to the method: 5-(5-((1R,2S)-2-fluorocyclopropyl)-1,2,4-oxadiazol-3-yl)-2-methylphenyl)imidazo[1,2-a]pyridine-3-carboxamide Form A (10 mg) was placed in a container and exposed to approximately 1200 kLuxh of Xenon light at 25° C. The sample was examined by XRPD for physical stability determination and by HPLC for chemical stability determination indicated by the presence of degradation products (DP). The HPLC method used is described in Example 13-1. The color (CL) of the samples was evaluated by visual observation.
5-(5-((1R,2S)-2-fluorocyclopropyl)-1,2,4-oxadiazol-3-yl)-2-methylphenyl)imidazo[1,2-a]pyridine-3-carboxamide Fumaric acid co-crystal (10 mg) was placed in a container and exposed to approximately 1200 kLuxh of Xenon light at 25° C. The sample was examined by XRPD for physical stability determination and by HPLC for chemical stability determination indicated by the presence of degradation products (DP). The HPLC method used is described in Example 19-1. The color (CL) of the samples was evaluated by visual observation.

Data set [2] can be described thus: Evaluation of the effect of grinding and granulation. As to conditions: Grinding and granulation with added water or ethanol. As to the method:
5-(5-((1R,2S)-2-fluorocyclopropyl)-1,2,4-oxadiazol-3-yl)-2-methylphenyl)imidazo[1,2-a]pyridine-3-carboxamide Form A (10 mg) was placed in a container and ground with added water or ethanol.
5-(5-((1R,2S)-2-fluorocyclopropyl)-1,2,4-oxadiazol-3-yl)-2-methylphenyl)imidazo[1,2-a]pyridine-3-carboxamide fumaric acid co-crystal (10 mg) was placed in a container and ground with added water or ethanol.

A short description of data set [3]: Solubility in various media at 25° C. after 24 hours equilibration (HPLC). Particulars: for solubility at 24 h: thermodynamic from solid, read-out: Conc. (solubility). On the procedure: (§1) 5-(5-((I R,2S)-2-fluorocyclopropyl)-1,2,4-oxadiazol-3-yl)-2-methylphenyl)imidazo[1,2-a]pyridine-3-carboxamide Form A (10 mg) in various media (1 mL) were mixed in a glass vial to make a slurry. Each sample was equilibrated at 25° C. for 24 hrs, and centrifuged at 13400 r.p.m. for 3 mins with 0.2 μm membrane to separate solids from liquids. The liquid was used to measure solubility by HPLC. Table 6 provides solubility data of 5-(5-((1R,2S)-2-fluorocyclopropyl)-1,2,4-oxadiazol-3-yl)-2-methylphenyl)imidazo[1,2-a]pyridine-3-carboxamide Form A at 25° C. after 24 hours equilibration and the final pH of the sample.
as §1, with “5-(5-((1R,2S)-2-fluorocyclopropyl)-1,2,4-oxadiazol-3-yl)-2-methylphenyl)imidazo[1,2-a]pyridine-3-carboxamide fumaric acid co-crystal” for “5-(5-((I R,2S)-2-fluorocyclopropyl)-1,2,4-oxadiazol-3-yl)-2-methylphenyl)imidazo[1,2-a]pyridine-3-carboxamide Form A”, “10” for “6”, “fumaric acid co-crystal” for “Form A”

[4] abbreviates: FaSSIF-V2, pH 6.5, 25° C., LOQ = Limit of Quantitation +/− 0.5 μg/ml.
The mark [5] stands for this setting: Water, 25° C., LOQ = Limit of Quantitation +/− 0.5 μg/ml.
Where [6] appears, read: pH 4.7, acetate buffer, 25° C., LOQ = Limit of Quantitation +/− 0.5 μg/ml.
[7] abbreviates: pH 6.8, phosphate buffer, 25° C.
Where [8] appears, read: pH 6.8, phosphate buffer, 25° C., LOQ = Limit of Quantitation +/− 0.5 μg/ml.
Setting [9] is: pH 10.0, borate buffer, 25° C., LOQ = Limit of Quantitation +/− 0.5 μg/ml.

In brackets after ≈: the same amount, converted by molar mass. Like-named read-outs stand apart in the source and are kept apart here.

For `Cc1ccc(-c2noc([C@H]3C[C@@H]3F)n2)cc1NC(=O)c1cnc2ccccn12` [Form A, N-(5-(5-((1R,2S)-2-fluorocyclopropyl)-1,2,4-oxadiazol-3-yl)-2-methylphenyl)imidazo[1,2-a]pyridine-3-carboxamide], the “Bulk (XRPD)” value in data set [1] is recorded as “Bulk (XRPD): No change”. Moreover, in data set [1], the “CL (color)” value was “No change”. The “DP (%) degradation products, Bulk (HPLC)” value in data set [1] turned out to be 0.06%. For the same compound, the “Change in solid state” value in data set [2] was “no change in solid state”. In addition, the solubility at 24 h is 210 µg/mL (≈ 556 µM) in data set [3] (0.01N HCl, 25 °C, pH 2, simulated gastric fluid, pH 2.0 (0.01N HCl), 25° C.); 440 µg/mL (≈ 1170 µM) in data set [3] (0.1N HCl, 25 °C, pH 1, simulated gastric fluid, pH 1.0 (0.1N HCl), 25° C.); 15 µg/mL (≈ 39.7 µM) in data set [3] (FeSSIF-V2, 25 °C, pH 5.8, fessif, FeSSIF-V2, pH 5.8, 25° C.). Moreover, the “Final pH” value was 6.40 in data set [3] (FaSSIF-V2, pH 6.5, 25° C.); 5.63 in data set [3] (FeSSIF-V2, pH 5.8, 25° C.); 2.10 in data set [3] (SGF pH 2.0, 25° C.); 7.91 in data set [3] (Water, 25° C.); 1.20 in data set [3] (pH 1.0 (0.1N HCl), 25° C.); 2.06 in data set [3] (pH 2.0 (0.01N HCl), 25° C.). In addition, the “Final pH” value was found to be 4.78 in data set [3] (pH 4.7, acetate buffer, 25° C.); 6.77 in data set [3] (setting [7]); 10.02 in data set [3] (pH 10.0, borate buffer, 25° C.). Besides, the “Conc. (solubility)” value in data set [3] (setting [4]) was “LOQ”; in data set [3] (SGF pH 2.0, 25° C.) it was 640 µg/mL; in data set [3] (setting [5]), “LOQ”; in data set [3] (setting [6]), “LOQ”; in data set [3] (setting [8]) it was “LOQ”; in data set [3] (setting [9]) it was “LOQ”.

For `Cc1ccc(-c2noc([C@H]3C[C@@H]3F)n2)cc1NC(=O)c1cnc2ccccn12` [fumaric acid co-crystal, N-(5-(5-((1R,2S)-2-fluorocyclopropyl)-1,2,4-oxadiazol-3-yl)-2-methylphenyl)imidazo[1,2-a]pyridine-3-carboxamide fumaric acid co-crystal], in data set [1], the “Bulk (XRPD)” value is on record as “Bulk (XRPD): No change”. Further, the “CL (color)” value in data set [1] is listed as “No change”. For the same compound, in data set [1], the “DP (%) degradation products, Bulk (HPLC)” value came to 0.10%. Further, the “Change in solid state” value in data set [2] is listed as “no change in solid state”. The “Final pH” value in data set [3] (FaSSIF-V2, pH 6.5, 25° C.) amounted to 4.66; in data set [3] (FeSSIF-V2, pH 5.8, 25° C.) it was 4.75; in data set [3] (SGF pH 2.0, 25° C.), 1.94; in data set [3] (Water, 25° C.), 4.26; in data set [3] (pH 1.0 (0.1N HCl), 25° C.), 0.95; in data set [3] (pH 2.0 (0.01N HCl), 25° C.), 1.98. The “Final pH” value is on record as 4.51 in data set [3] (pH 4.7, acetate buffer, 25° C.); 5.79 in data set [3] (setting [7]); 8.76 in data set [3] (pH 10.0, borate buffer, 25° C.). In addition, the “Conc. (solubility)” value is “LOQ” in data set [3] (setting [4]); 8 µg/mL in data set [3] (FeSSIF-V2, pH 5.8, 25° C.); 180 µg/mL in data set [3] (SGF pH 2.0, 25° C.); “LOQ” in data set [3] (setting [5]); 410 µg/mL in data set [3] (pH 1.0 (0.1N HCl), 25° C.); 190 µg/mL in data set [3] (pH 2.0 (0.01N HCl), 25° C.). Moreover, the “Conc. (solubility)” value in data set [3] (setting [6]), in data set [3] (setting [8]) and in data set [3] (setting [9]) was “LOQ” each time.

In general, solubility refers to the concentration that dissolves in the medium under given conditions.
